Measurements taken from PubChem BioAssay (NCI).
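Tested at 5 concentrations; 48 h exposure; 96-well plates; endpoints linearly interpolated, else capped at highest concentration. GI50 is the concentration that inhibits growth by half. At the TGI there is no net growth.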

Columns and labels:
Assay in all cases: NCI tumour cell line growth inhibition, 48 h
[1] = tested on: MCF7 breast
[2] = tested on: SF-539 CNS
[3] = tested on: RPMI-8226 leukemia
[4] = tested on: MDA-MB-435
[5] = tested on: UO-31 renal
[6] = tested on: SNB-19 CNS
[7] = tested on: K-562 leukemia
[8] = tested on: NCI/ADR-RES ovarian
[9] = tested on: SF-268 CNS
[10] = tested on: OVCAR-5 ovarian

Clc1ccc2c(NCCNc3ccnc4cc(Cl)ccc34)ccnc2c1
TGI [1]: 36 µM | TGI [2]: 25.3 µM | TGI [3]: 42 µM | TGI [4]: 32 µM | TGI [5]: 29.1 µM | TGI [6]: 50.2 µM | TGI [7]: 28.2 µM | TGI [8]: > 100 µM | TGI [9]: 70.6 µM | TGI [10]: 33.3 µM

COc1ccc(Cl)cc1NC(=O)c1c(NC(=O)C(F)(F)C(F)(F)F)sc2c1CCCCC2
GI50 [1]: 1.68 µM | TGI [1]: 8.68 µM | GI50 [3]: 0.523 µM | TGI [3]: 3.21 µM | GI50 [4]: 2.52 µM | TGI [4]: > 100 µM | GI50 [5]: 1.94 µM | TGI [5]: 5.75 µM | GI50 [6]: 1.57 µM | TGI [6]: > 100 µM | GI50 [7]: 0.663 µM | TGI [7]: > 100 µM | GI50 [8]: 1.8 µM | TGI [8]: 8.37 µM | GI50 [9]: 1.09 µM | TGI [9]: > 100 µM | GI50 [10]: 2.61 µM | TGI [10]: > 100 µM

COc1ccc(CCCC(=O)O)c(C)c1
TGI [4]: > 100 µM | TGI [5]: > 100 µM | TGI [6]: > 100 µM | TGI [7]: > 100 µM | TGI [8]: > 100 µM | TGI [9]: > 100 µM | TGI [10]: > 100 µM

COc1cccc2c1C(=O)c1c(O)c3c(c(O)c1C2=O)C[C@@](O)(/C(C)=N/NC(=O)c1ccccc1)C[C@@H]3OC1CC(N)C(O)C(C)O1 (stereo not given in full)
TGI [1]: 2.93 µM | TGI [2]: 1.58 µM | TGI [3]: 3.85 µM | TGI [4]: 2.15 µM | TGI [5]: 8.69 µM | TGI [6]: 7.86 µM | TGI [7]: 4.25 µM | TGI [8]: 76 µM | TGI [9]: 3.35 µM | TGI [10]: 4.73 µM

COC(=O)c1cc2c3c(cc(O)c2[nH]1)N(C(=O)C1Cc2cc(OC)c(OC)c(OC)c2N1)CC3CCl (stereo not given)
GI50 [2]: < 0.01 µM | TGI [2]: < 0.01 µM | GI50 [3]: < 0.01 µM | TGI [3]: < 0.01 µM | GI50 [6]: < 0.01 µM | TGI [6]: 1.05 µM | GI50 [8]: < 0.01 µM | TGI [8]: > 100 µM | GI50 [9]: < 0.01 µM | TGI [9]: 0.646 µM
